Entries after “also recorded” stand apart in the source; their conditions may differ.
Tests used:
Type in all cases: in vivo
[1] = tested on: CD73-KO mice; test: Nocturnal movement activity after 40 Hz light flicker
Procedure: Thus, we speculated that the 40 Hz light flicker stimulus can regulate sleep rhythm. We firstly exposed the wild-type C57BL/6J mice to light flickers at different frequencies in the last 30 minutes of the daytime phase (19:30-20:00), and then monitored the nocturnal movement activity of the mice, thereby reflecting the sleep-wake states of the mice indirectly. […] We then intraperitoneally injected CD73-KO mice with the […] transporter inhibitor Dipyridamole (Dipyr) at 15 mg/kg. […] Meanwhile, we also intraperitoneally injected CD73-KO mice with the adenosine Al receptor activity antagonist 8-Cyclopentyl-1,3-dipropyl-1H-purine-2,6(3H,7H)-dione (DPCPX) at 6 mg/kg.

[2] = tested on: adenosine in the visual cortex (V1); test: UPLC detection of total adenosine concentration in the visual cortex of mice; settings: mice visual cortex V1, Dipyridamole 6 mg/kg intraperitoneal, 30 min before illumination
Procedure: The total concentration of adenosine in the visual cortex of mice was detected by ultra-high performance liquid chromatography (which is reported including 95% extracellular adenosine and 5% intracellular adenosine in literature). Dipyridamole (Dipyr) (a 6 mg/kg adenosine transporter inhibitor) dissolved in 0.5% methylcellulose was intraperitoneally injected 30 minutes before illumination, while the control group was given 0.5% methylcellulose. 30 minutes after the injection, the blank control group and the Dipyridamole group were illuminated for 30 minutes by the light flicker stimulus with the illuminance of 3000 lux, the duty ratio of 50% and the strobe of 40 Hz (referred to as “40 Hz light flicker stimulus” hereinafter). After illumination, the materials were sampled, weighed and rapidly frozen in liquid nitrogen immediately. After the sample processing, the peak value at about 2.0 was detected on machine with reference to the parameters of the standard substance, and the area under the curve at this moment was taken as the concentration of adenosine in the sample. Finally, the concentration of adenosine was obtained after checking the sample quality and calibrating.

[3] = tested on: C57BL/6J mice; test: EEG/EMG sleep recording after adenosine microinjection into V1 visual cortex
Procedure: Adenosine was injected locally in the V1 cortex of mice to illustrate that the increase in the concentration of adenosine in the visual cortex could improve the sleep amount of mice. The administration cannulas were implanted in bilateral V1 brain regions of C57BL/6J mice, and the mice were placed in the sleep recording cage after about 10 days of surgical recovery. After 3 days of adaptation, the artificial cerebrospinal fluid (ACSF), adenosine of 1.5 nmol/side or adenosine 4.5 nmol/side was microinjected into the V1 visual cortex at the beginning of the dark phase on days 1, 4 and 7 (the administration order was random, and the injection volume was 2 μl/side), respectively; and the EEG/EMG of mice was recorded.

[4] = 4.5 nmol/side microinjected into V1, mice

CCCn1c(=O)c2[nH]c(C3CCCC3)nc2n(CCC)c1=O [DPCPX, 8-Cyclopentyl-1,3-dipropyl-1H-purine-2,6(3H,7H)-dione]
movement inhibition effect caused by the 40 Hz light flicker ([1]; 6 mg/kg intraperitoneal, 6 mg/kg): block the movement inhibition effect

OCCN(CCO)c1nc(N2CCCCC2)c2nc(N(CCO)CCO)nc(N3CCCCC3)c2n1 [Dipyridamole]
total concentration of intracellular and extracellular adenosine [2]: effectively inhibit
movement inhibition effect induced by the 40 Hz light flicker ([1]; 15 mg/kg intraperitoneal, 15 mg/kg): blocks the movement inhibition effect; also recorded: completely disappeared

Nc1ncnc2c1ncn2[C@@H]1O[C@H](CO)[C@@H](O)[C@H]1O [adenosine]
sleep amount compared to the control group (ACSF) ([3]; 1.5 nmol/side microinjected into V1, mice): tendency to promote sleep but no significant difference
amount of the non-rapid eye movement sleep in the dark phase [3, 4]: 3 h
non-rapid eye movement sleep amount compared to the control group (ACSF) [3, 4]: significantly increases
total sleep amount of mice ([3]; adenosine injection into the visual cortex, 1.5 and 4.5 nmol/side): concentration-dependent increase
